Data on 4 compounds can be found in US20160024249A1, “Temperature-Responsive Polymer Compositions and Methods of Use” (Vanderbilt University, priority 2014, published 2016).

No end group written: not given here.

Data set [1] relates to mouse model of hind limb ischemia. Nature of the data set: Histological analysis of inflammation (H&E, F4/80 macrophage infiltration). Type of data set: in vivo, A/J mice. The following applies: multiple 1 mL microgel injections.
Description: Mouse model of hind limb ischemia: Wild type A/J mice were used to develop a model of PAD as described previously, by ligating the femoral artery and vein at one ligation below the epigastric artery and a second ligation around the artery and vein at a distal location just proximal to the deep femoral branch. The femoral artery and vein were then cut between these two sutures. […] In order to control the hydrogel size considering the possibility that the hydrogel size may change peptide release and therefore inflammatory responses a single, 10 mL bulk injection or ten, 1 mL injections of peptide-loaded polymer were made into the thigh muscle adjacent to the femoral artery ligations. The surgical incision was then closed with non-degradable sutures. […]
Histological analysis of angiogenesis and inflammation: After sacrificing mice, ischemic muscle samples were prepared for histological analysis as described elsewhere. […] Immunohistochemical (IHC) staining to identify activated inflammatory cells by F4/80 expression was quantified by normalizing the total F4/80 positive area (indicated by brown staining) to the total cell number (determined by hema-toxylin nuclear staining) using Image J.
Data set [2] shares this test system. Briefly: Laser Doppler perfusion imaging (LDPI) of perfusion recovery. The following applies: peptide-loaded microgels, 14 day time course. Type of data set: in vivo, A/J mice. The procedure:
Mouse model of hind limb ischemia: Wild type A/J mice were used to develop a model of PAD as described previously, by ligating the femoral artery and vein at one ligation below the epigastric artery and a second ligation around the artery and vein at a distal location just proximal to the deep femoral branch. The femoral artery and vein were then cut between these two sutures. A 13% by weight solution of injectable polymers in H2O 2O was mixed with 75 mg Ac-SDKP, C16, or the combination of Ac-SDKP and C16 at 25° C. In order to control the hydrogel size considering the possibility that the hydrogel size may change peptide release and therefore inflammatory responses a single, 10 mL bulk injection or ten, 1 mL injections of peptide-loaded polymer were made into the thigh muscle adjacent to the femoral artery ligations. The surgical incision was then closed with non-degradable sutures. […]
LDPI: LDPI was performed on the footpad region of the hind limb of the mice using a Periscan PIM II device. […] The perfusion ratio was calculated by normalizing the average perfusion value of the ischemic footpad (right) to the average perfusion value of the control, un-operated footpad (left) using Image J (NIH).

The test system is the same in data set [3]. Briefly: Optical coherence tomography (Doppler and speckle-variance OCT) of blood vessels. Type of data set: in vivo, A/J mice. The settings on record: for vessel morphology (speckle-variance OCT volume scans of calf muscle): injectable microgels. The procedure: (§1) Mouse model of hind limb ischemia: Wild type A/J mice were used to develop a model of PAD as described previously, by ligating the femoral artery and vein at one ligation below the epigastric artery and a second ligation around the artery and vein at a distal location just proximal to the deep femoral branch. The femoral artery and vein were then cut between these two sutures. A 13% by weight solution of injectable polymers in H2O 2O was mixed with 75 mg Ac-SDKP, C16, or the combination of Ac-SDKP and C16 at 25° C. In order to control the hydrogel size considering the possibility that the hydrogel size may change peptide release and therefore inflammatory responses a single, 10 mL bulk injection or ten, 1 mL injections of peptide-loaded polymer were made into the thigh muscle adjacent to the femoral artery ligations. The surgical incision was then closed with non-degradable sutures. As controls, femoral artery ligation surgery was performed on animals without any microgels or peptide treatment or with peptide in PBS injections into the subcutaneous tissue adjacent to femoral artery ligations. The left hind limb (unoperated) was also used as a surgical control.
Optical coherence tomography: Doppler OCT and speckle-variance OCT were used to non-invasively image blood vessels in the ischemic gastrocnemius muscle of mice on days 1 and 13 after femoral artery ligation, as previously described. […] Doppler OCT cross-sectional scans (B-scans) were used to quantify blood flow changes over time in the hind limb, while volume intensity projections from speckle-variance OCT image volumes (C-scans) presented vessel morphology differences between groups. […] Six Doppler OCT B-scans (4 mm, 800 A-scans, Doppler number of 9) were performed per mouse at each time point and perfusion was quantified by calculating the ratio of the number of blood vessel pixels per scan over the total imaged area per scan (n=6 mice per time point).

For data set [4] the test system is unchanged. Briefly: Fluorescence microangiography (vessel perfusion capacity). The format is in vivo, A/J mice. The procedure: as §1
Angiogenesis and phagocytosis assays: Fourteen days after femoral artery ligation, mice were sacrificed and tissue and microgels were harvested for analysis. Immediately before sacrificing the mice, functional fluorescence micro-angiography was performed to visualize angiogenesis in and around peptide-loaded microgels, as described previously. As a result of fluorescence microangiography, only the functional capillaries with a perfusion capacity, including those around injected micro-gels, show red fluorescence in the mouse body. Excised tissue from the site of microgel injections was imaged using an Olympus FV100 confocal microscope. For quantification of vessel perfusion capacity, the red fluorescence intensity was quantified using Image J software (n=6 images per mouse, n=6 mice per treatment).

The test system is the same in data set [5]. Nature of the data set: Vybrant phagocytosis assay in harvested microgels and surrounding tissue. The format is in vivo, A/J mice. The following applies: peptide-loaded microgels, day 14.
Description: Mouse model of hind limb ischemia: Wild type A/J mice were used to develop a model of PAD as described previously, by ligating the femoral artery and vein at one ligation below the epigastric artery and a second ligation around the artery and vein at a distal location just proximal to the deep femoral branch. The femoral artery and vein were then cut between these two sutures. […] In order to control the hydrogel size considering the possibility that the hydrogel size may change peptide release and therefore inflammatory responses a single, 10 mL bulk injection or ten, 1 mL injections of peptide-loaded polymer were made into the thigh muscle adjacent to the femoral artery ligations. The surgical incision was then closed with non-degradable sutures. As controls, femoral artery ligation surgery was performed on animals without any microgels or peptide treatment or with peptide in PBS injections into the subcutaneous tissue adjacent to femoral artery ligations. […]
A phagocytosis assay was performed in harvested microgels using Vybrant Phagocytosis Assay kit according to the manufacturer's protocol. Green fluorescence from internalized Escherichia coli particles in excised microgels and surrounding tissue was visualized through confocal imaging. The intensity of green fluorescence in each image was quantified using Image J (n=6 images per mouse, n=6 mice per treatment).
Data set [6] has as its system mouse aortic endothelial cells (mAECs). Nature of the data set: Gene expression by quantitative RT-PCR. The format is cell-based. The following applies: 75 mg/mL peptide, 72 h. The procedure: (§2) Cell Culture: RAW 264.7 macrophages (ATCC) were cultured in DMEM (Gibco) supplemented with 10% FBS and 1% penicillin/strepto-mycin. Mouse aortic endothelial cells (mAECs) were a generous gift from Dr. Ambra Pozzi at Vanderbilt University Medical Center. mAECs were cultured in EGM-2 Basal Media supplemented with BulletKit (Lonza, Allendale, N.J.) and 10 units/mLIFN-g (Sigma). RAW 264.7 mouse macrophage cells (Sigma) were cultured in DMEM with 10% FBS and 1% penicillin/streptomycin. For cell culture studies with peptides, 75 mg/mL of Ac-SDKP or C16 peptides was used. For inhibition studies, 5 mM of MMP-9 inhibitor-1 (CTK8G1150; AG-L-66085, Santa Cruz Biotechnology, Dallas, Tex.) or 5 mg/mL of LEAF Purified Mouse TNF-a antibody (BioLegend) was used.
Gene expression: mAECs or RAW 264.7 cells were seeded at a density of 3×10^5 cells/mL on TCPS with 75 mg/mL of Ac-SDKP, C16, or the combination of C16 and Ac-SDKP peptides. After 3 days, RNA was extracted from […] using Trizol reagent and RNA easy columns. After dissolving RNA in RNase-free water, the concentration and purity of isolated RNA was measured using TECAN plate reader Nanoquant (company info). At least […] of RNA was reverse transcribed using iScriptReverse transcription Supermix for RT-qPCR on a BioRad thermocycler (company info). 50 ng/well cDNA was then amplified using SYBR green Supermix and fluorescence signal was measured on a BioRAD real time PCR machine. TGF-b1 forward: […], reverse: […]. NF-kb forward: […]-CACAGA, reverse: […]. TIMP1 forward: […], reverse: […]-CACA. FGF-1 forward: […], reverse: […]. FGF-2: MMP-9: […]-CAATCC, reverse: […]. MMP-2 forward: […], reverse: […]. TNF-a: forward: […], reverse: AGA-[…]. VEGF forward: […]-CACCA, reverse: […]. GAPDH forward: […], reverse: […]. TIMP-2 forward: […], reverse: CACGCG-[…]. Expression was calculated using the […] and normalized to GAPDH expression (n=8).

The subject of data set [7] is RAW 264.7 macrophages. Nature of the data set: Gene expression by quantitative RT-PCR. Type of data set: cell-based, mouse. The following applies: 75 mg/mL peptide, 72 h. As for the experimental part: as §2
Gene expression: mAECs or RAW 264.7 cells were seeded at a density of 3×10^5 cells/mL on TCPS with 75 mg/mL of Ac-SDKP, C16, or the combination of C16 and Ac-SDKP peptides. After 3 days, RNA was extracted from […] using Trizol reagent and RNA easy columns. After dissolving RNA in RNase-free water, the concentration and purity of isolated RNA was measured using TECAN plate reader Nanoquant (company info). […] 50 ng/well cDNA was then amplified using SYBR green Supermix and fluorescence signal was measured on a BioRAD real time PCR machine. […] Expression was calculated using the […] and normalized to GAPDH expression (n=8).

For data set [8], the system named is RAW 264.7 macrophages. Nature of the data set: TNF-a ELISA of cell culture supernatant. The settings on record: RAW 264.7, 72 h, peptides 75 mg/mL, TNF-a antibodies 5 mg/mL. The format is cell-based, mouse. The procedure: as §2
ELISA: To verify TNF-a inhibition with antibodies, an ELISA was performed using Mouse TNF-a ELISA MAXTM Deluxe (Biolegend) according to the supplier's protocol. Secreted TNF-a in RAW 264.7 cell culture supernatant was measured by reading absorbance at 450 nm using a TECAN M1000 plate reader and quantified against a standard curve (n=4 per treatment).
In general terms: In an ELISA, binding on a coated surface is turned into a signal by an enzyme label.

In data set [9] the test system is mouse aortic endothelial cells (mAECs). Nature of the data set: MMP-9 activity by zymography. The format is cell-based. The following applies: 72 h, peptides 75 mg/mL, MMP-9 inhibitors 5 mM, TNF-a antibodies 5 mg/mL. The procedure: as §2
MMP-9 activity: After 72 h culture in serum-free media, culture media from mAECs or RAW 264.7 cells (3×10^5 cells/mL, with/without peptides or TNF-a/MMP-9 inhibitors) was collected, concentrated, and analyzed by zymography, as described previously. Concentrated protein samples were incubated with non-reducing buffer at a ratio of 1:1. […] total protein per lane were loaded onto a 7.5% polyacrylamide gel containing 0.1%(w/v) gelatin (Sigma). Gels were washed in dH2O containing 3.3% (v/v) Triton X-100, followed by […] incubation in reaction buffer at 37 C. After incubation, gels were placed in fixative (30% methanol, 10% acetic acid, and 60% dH2O) for 1 h before staining with 4 parts Coomassie brilliant blue R-250 (Sigma) and 1 part methanol for 12 h. Gels were destained in 25% methanol for 1 h. The gelatinolytic activity of pro-MMP-9 was determined by densitometry of the 97 KDa white band on a blue background using Image J(n=4 per treatment). MMP-9 expression was then normalized to the expression from the no inhibitor, no peptide treated group.

Data set [10] has the same test system. Nature of the data set: Tubulogenesis on growth factor reduced Matrigel. Type of data set: cell-based. The following applies: mAECs on Matrigel for 6 h. The procedure: as §2
Tubulogenesis: mAECs (3×10^5 cells/mL) were cultured on growth factor reduced Matrigel ([…], BD Biosciences) for 6 h before imaging for tube formation using a Nikon Eclipse Ti microscope (n=4 per treatment).

The test system of data set [11] is RAW 264.7 macrophages. Nature of the data set: MMP-9 activity by zymography. The format is cell-based, mouse. The following applies: RAW 264.7, 72 h, regardless of TNF-a inhibition. As for the experimental part:
as §2
MMP-9 activity: After 72 h culture in serum-free media, culture media from mAECs or RAW 264.7 cells (3×10^5 cells/mL, with/without peptides or TNF-a/MMP-9 inhibitors) was collected, concentrated, and analyzed by zymography, as described previously. Concentrated protein samples were incubated with non-reducing buffer at a ratio of 1:1. […] total protein per lane were loaded onto a 7.5% polyacrylamide gel containing 0.1%(w/v) gelatin (Sigma). […] The gelatinolytic activity of pro-MMP-9 was determined by densitometry of the 97 KDa white band on a blue background using Image J(n=4 per treatment). […]

Protocol for iPSC-CMs: The encapsulation study was performed by mixing cells with polymer solution and gelled at 37° C. After two weeks, live cells were stained by calcein AM (green fluorescence) (g).

In the case of “N-acetyl-Ser-Asp-Lys-Pro (Ac-SDKP) [anti-inflammatory peptide]”, the “inflammatory / macrophage infiltration in muscle tissue” value in data set [1] (day 14, vs no peptide) was “further decreased inflammatory infiltration”. Moreover, the “perfusion recovery (LDPI)” value in data set [2] is “did not increase perfusion”. Moreover, in [3], the “vessel morphology (speckle-variance OCT volume scans of calf muscle)” value was “few blood vessels with limited branching”. In [4] (peptide-loaded microgels, day 14), the “angiogenesis in comparison to microgels without peptide loading” value is on record as “reduced both responses”. Moreover, in [5], the “phagocytic activity in tissue around microgels” value is given as “reduced both responses”. The “TNF-a expression in comparison to no peptide treatment” value (in data set [6]; with RAW 264.7 macrophages [7]) was “decreased TNF-a expression” in each case. Besides, in data set [6] (normalized to GAPDH), the “MMP-9 expression, decrease compared to no peptide treatment” value is “over 50%”. For the same compound, the “secreted TNF-a (ELISA)” value in the data set on RAW 264.7 macrophages [8] is given as “secreted the least amounts of TNF-a”. Further, in data set [9], the “MMP-9 activity in endothelial cells (zymography)” value (“MMP-9 activity … (zymography)” below) is “diminished”. Also, the “tubulogenesis (tube formation)” value in data set [10] was “diminished”.
In the case of “polyethylene glycol-co-poly-8-caprolactone [PEG-PCL]”, the “viability of encapsulated iPSC-CMs (calcein AM)” value in the data set on iPSC-CMs was “maintained their viability”.
Take `CCN(CC)Cc1cc(C)c(N(Cc2ccccc2)S(=O)(=O)c2ccc(OC)cc2)c(C(=O)NO)c1` [MMP-9 inhibitor, reference compound]: the “MMP-9 activity … (zymography)” value in data set [9] is on record as “attenuation of MMP-9 activity”. For the same compound, the “tubulogenesis (tube formation)” value in [10] was “significantly reduced”.
For the compound “KAFDITYVRLKF [C16, pro-angiogenic peptide]”, in data set [1] (day 14), the “macrophage infiltration, increase compared to no peptide treatment” value is on record as “two fold”. Also, the “higher perfusion compared to microgels without peptides (LDPI)” value in [2] (ischemic/control foot ratio) was found to be 29%. Moreover, the “increase in the total area of vessels (Doppler OCT) compared to Ac-SDKP or no treatment” value in [3] (implantable scaffolds, day 1 to day 13) was “greater than two fold”. Besides, the “vessel morphology (speckle-variance OCT volume scans of calf muscle)” value in data set [3] is “many vessels with a high degree of branching”. Moreover, the “angiogenesis compared to PBS alone” value in data set [4] (PBS injections of peptide, no microgel) is recorded as “Slightly increased angiogenesis”. In data set [4] (microgel-mediated delivery, day 14), the “angiogenesis / perfusion capacity increase vs. microgels without peptides” value was about 1.5 fold. In addition, the “phagocytic activity in tissue around microgels” value in data set [5] is “higher phagocytic activity than no peptide controls”. In [6], the TIMP-1 expression result is reported as “decreased TIMP-1 expression significantly” and the “TNF-a expression in comparison to no peptide treatment” value is given as “increased TNF-a expression”. The “TNF-a expression in comparison to no peptide treatment” value with RAW 264.7 macrophages [7] is “increased TNF-a expression”. For the same compound, the “MMP-9 activity compared to macrophages without peptide treatment” value in the data set on RAW 264.7 macrophages [11] is reported as “significantly higher levels of MMP-9 activity”. For the same compound, in data set [9], the “MMP-9 activity … (zymography)” value is “augmented MMP-9 activity and tubulogenesis”. The “tubulogenesis (tube formation)” value in data set [10] was “augmented MMP-9 activity and tubulogenesis”.
